Results published in patent US20090318496A1, “PREPARATION CONTAINING FIBRATE AGENT AND PROCESS FOR PRODUCING THE SAME” (ASKA Pharmaceutical Co., Ltd., priority 2006, published 2009).

Assays:
[1] = system: fibrinogen; assay: Amount of fibrinogen in sodium citrate-containing plasma of dogs, thrombin time method; type: in vivo; conditions: dog sodium citrate plasma, Day 7-4 hr minus Day0-4 hr; FEN 20 mg/kg and/or PIT 2 mg/kg orally once a day for 7 days; average ± standard error
Method: (§1) Four hours (Day0-4 hr) and 24 hours (Day0-24 hr) after feeding on the day before the administration start day, blood was collected from antebrachial radial veins, and serum and plasma containing sodium citrate (a citric sodium aqueous solution having a concentration of 3.8% by weight) were obtained. Then using the serum, the total cholesterol (TC), the triglyceride (TG), the phospholipid (PL), and the free fatty acid (NEFA) were quantitatively determined by a Toshiba automatic analyzer (manufactured by Toshiba Medical Systems Corporation, TBA-120FR). Moreover, using the sodium citrate-containing plasma, the amount of fibrinogen was quantitatively determined in accordance with the thrombin time method.
(§2) Incidentally, feeding was performed immediately after every administration.
(§3) Blood was collected after 4 hours of the seventh administration (Day7-4 hr). Using the same manner as in the case of the Day0-4 hr, serum and sodium citrate-containing plasma were obtained, and each of the examinations was performed.
The quantitation results were shown as “an average value±a standard error”. […] Incidentally, the obtained value from each test was regarded as a significant difference when the difference value was less than 5%.

[2] = system: lipid and others in blood (TC, TG, PL, NEFA in serum); assay: Decrease of lipid in blood by combination use of fenofibrate and pitavastatin in dog (serum TC, TG, PL, NEFA); type: in vivo
Method: Dogs [female and male beagles (YAKUKEN BEAGLE) (11 male dogs and 2 female dogs, 27 to 73 months old)] were used for the examination. Incidentally, each of the dogs was accommodated in a separate bracket cage in a breeding room under the following conditions: a room temperature of 23±3° C., a humidity of 50±10%, a light period of 8:00 to 20:00, and a dark period of 20:00 to 8:00. Moreover, the dog was given 300 g of CD-5M (manufactured by CLEA Japan, Inc.) as a food once a day. Incidentally, the dog was freely allowed to have tap water.
as §1, §2, §3
Incidentally, the obtained value from each test was regarded as a significant difference when the difference value was less than 5%.
Incidentally, the relative index of each component was calculated based on the formula: (the average value of the concentration in the blood after the administration)/(the average value of the concentration in the blood before the administration).

[3] = pitavastatin 4 mg a day for 6 days vs combined with fenofibrate 160 mg a day or gemfibrozil 600 mg twice a day for 7 days; cited from earlier work
[4] = Day 7-4 hr minus Day0-4 hr, FEN 20 mg/kg and/or PIT 2 mg/kg orally once a day for 7 days, average ± standard error
[5] = Day 7-4 hr, FEN 20 mg/kg and/or PIT 2 mg/kg orally for 7 days

In the case of `CC(C)OC(=O)C(C)(C)Oc1ccc(C(=O)c2ccc(Cl)cc2)cc1` [FEN, Fenofibrate], the ΔFibrinogen [1] is reported as 6 ± 22 mg/dL, the ΔNEFA [2, 4] is reported as −25 ± 20 μEq/L and the ΔPL [2, 4] is reported as -71 ± 11 mg/dL. For the same compound, the ΔTG [2, 4] was -38.7 ± 16.3 mg/dL.
In the case of `O=C(O)C[C@H](O)C[C@H](O)/C=C/c1c(C2CC2)nc2ccccc2c1-c1ccc(F)cc1` [PIT, Pitavastatin], the ΔFibrinogen [1] is listed as 11 ± 11 mg/dL, the “Drug interactions (pharmacokinetic parameter, concentration of unchanged pitavastatin in the blood)” value [3] is listed as “low degree of the drug interactions” and the ΔNEFA [2, 4] is listed as −6 ± 102 μEq/L. The ΔPL [2, 4] was -61 ± 9 mg/dL, the ΔTC [2, 4] was -25.0 ± 3.6 mg/dL and the ΔTG [2, 4] was -11.5 ± 4.8 mg/dL. The “Relative index of NEFA (average concentration after/before administration)” value [2, 5] was 0.978, the “Relative index of PL (average concentration after/before administration)” value [2, 5] was 0.795 and the “Relative index of TC (average concentration after/before administration)” value [2, 5] was 0.797. For the same compound, the “Relative index of TG (average concentration after/before administration)” value [2, 5] was 0.791.
